The text below walks through data of ChEMBL document CHEMBL4177539, “Discovery of N-((3R,4R)-4-Fluoro-1-(6-((3-methoxy-1-methyl-1H-pyrazol-4-yl)amino)-9-methyl-9H-purin-2-yl)pyrrolidine-3-yl)acrylamide (PF-06747775) through Structure-Based Drug Design: A High Affinity Irreversible Inhibitor Targeting Oncogenic EGFR Mutants with Selectivity over Wild-Type EGFR” (J Med Chem, 2017).

The source made the active and inactive calls. The calls are words filed in the database; no cut-off is given here.

In general, inhibition refers to the change of the read-out against control, counted positive when it falls. The term bioavailability denotes the share of a dose that reaches the circulation, judged against a reference dose that is usually intravenous. Higher therefore signals good availability. One may read the half-life as how long it takes for the measured level to halve. In general, fraction unbound refers to free concentration divided by total concentration. A lower fraction unbound goes with little free substance.

Data set [1] has as its system Canis familiaris. The data set is described as follows: Toxicity in dog assessed as effect on pulmonary system functions administered as repeated dosing. Format: organism-based, Canis lupus familiaris. Particulars: in vivo.
The nature of data set [2]: Apparent intrinsic hepatic clearance in mouse hepatocytes. Particulars: read-out: CLH(app). The class given is ADME, cell-based, Hepatocyte.
Another data set deals with CYP2D6 (Homo sapiens, UniProt P10635). The data set is described as follows: Inhibition of human CYP2D6 at 10 uM. The class given is ADME.
Another data set has as its system Salmonella typhimurium. Nature of the data set: Mutagenicity in Salmonella typhimurium by Ames test. The class given is toxicity, organism-based. Particulars: salmonella enterica subsp. enterica serovar typhimurium.
A short description of data set [3]: Oral bioavailability in Wistar Han rat at 30 mg/kg administered as single dose. Format: ADME, organism-based. Particulars: in vivo.
Data set [4] in a line: Half life in CD-1 mouse blood at 1 uM by LC-MS/MS analysis. Format: ADME, tissue-based.
Data set [5] deals with Canis familiaris. Nature of the data set: Toxicity in dog assessed as effect on central nervous system functions administered as single dose. The class given is organism-based, Canis lupus familiaris. Particulars: in vivo.
Data set [6] relates to Rattus norvegicus. Nature of the data set: Toxicity in rat assessed as electrocardiogram changes administered as repeated dosing. Format: organism-based. Particulars: in vivo.
The test system of data set [7] is Canis familiaris. Nature of the data set: Toxicity in dog assessed as effect on pulmonary system functions administered as single dose. The class given is organism-based, Canis lupus familiaris. Particulars: in vivo.
Data set [8] has as its system Rattus norvegicus. Nature of the data set: Toxicity in rat assessed as electrocardiogram changes administered as single dose. Particulars: in vivo. The class given is organism-based.
Data set [9] has as its target Tyrosine-protein kinase BTK (Homo sapiens) (UniProt Q06187). The data set is described as follows: Inhibition of BTK (unknown origin) at 1 uM by cell based assay.
Data set [10] in a line: Time-dependent inhibition of CYP450 (unknown origin). Format: ADME. Particulars: human.
Another data set addresses CYP2C8 (Homo sapiens, UniProt P10632). Nature of the data set: Inhibition of human CYP2C8 at 10 uM. The class given is ADME.
Data set [11] can be described thus: Fraction unbound in rat plasma at 2 uM by LC-MS/MS based equilibrium dialysis method. Format: ADME, cell-free.
Data set [12] has as its system Canis familiaris. Nature of the data set: Toxicity in dog assessed as electrocardiogram changes administered as single dose. Particulars: in vivo. The class given is organism-based, Canis lupus familiaris.
The nature of data set [13]: Apparent intrinsic hepatic clearance in rat hepatocytes. The class given is ADME, cell-based, Hepatocyte. Particulars: read-out: CLH(app).
Data set [14] is described as follows: Oral bioavailability in Beagle dog at 3 mg/kg administered as single dose. The class given is ADME, organism-based, Canis lupus familiaris. Particulars: in vivo.
The nature of data set [15]: Apparent intrinsic clearance in human microsomes. Format: ADME, Microsome. Particulars: read-out: CL(app).
In data set [16] the test system is Canis familiaris. Nature of the data set: Toxicity in dog assessed as body weight loss administered as repeated dosing for 91 days. Particulars: in vivo, 2184 h. The class given is organism-based, Canis lupus familiaris.
A short description of data set [17]: Apparent intrinsic clearance in rat microsomes. The class given is ADME, Microsome. Particulars: read-out: CL(app).
The target of data set [18] is Receptor tyrosine-protein kinase erbB-4 (Homo sapiens) (UniProt Q15303). Nature of the data set: Inhibition of N-terminal GST-tagged recombinant human ErbB4 cytoplasmic domain (708 to 993 residues) expressed in Baculovirus expression system at 1 uM by FRET-based Z'-LYTE assay.
Data set [19] concerns Rattus norvegicus. Nature of the data set: Toxicity in rat assessed as effect on heart rate administered as repeated dosing. Format: organism-based. Particulars: in vivo.
Data set [20] concerns Rattus norvegicus. The data set is described as follows: Toxicity in rat assessed as effect on pulmonary system functions administered as single dose. Format: organism-based. Particulars: in vivo.

Receptor tyrosine-protein kinase erbB-4 (Homo sapiens), sequence (Q15303 whole entry, the tested form may be a part): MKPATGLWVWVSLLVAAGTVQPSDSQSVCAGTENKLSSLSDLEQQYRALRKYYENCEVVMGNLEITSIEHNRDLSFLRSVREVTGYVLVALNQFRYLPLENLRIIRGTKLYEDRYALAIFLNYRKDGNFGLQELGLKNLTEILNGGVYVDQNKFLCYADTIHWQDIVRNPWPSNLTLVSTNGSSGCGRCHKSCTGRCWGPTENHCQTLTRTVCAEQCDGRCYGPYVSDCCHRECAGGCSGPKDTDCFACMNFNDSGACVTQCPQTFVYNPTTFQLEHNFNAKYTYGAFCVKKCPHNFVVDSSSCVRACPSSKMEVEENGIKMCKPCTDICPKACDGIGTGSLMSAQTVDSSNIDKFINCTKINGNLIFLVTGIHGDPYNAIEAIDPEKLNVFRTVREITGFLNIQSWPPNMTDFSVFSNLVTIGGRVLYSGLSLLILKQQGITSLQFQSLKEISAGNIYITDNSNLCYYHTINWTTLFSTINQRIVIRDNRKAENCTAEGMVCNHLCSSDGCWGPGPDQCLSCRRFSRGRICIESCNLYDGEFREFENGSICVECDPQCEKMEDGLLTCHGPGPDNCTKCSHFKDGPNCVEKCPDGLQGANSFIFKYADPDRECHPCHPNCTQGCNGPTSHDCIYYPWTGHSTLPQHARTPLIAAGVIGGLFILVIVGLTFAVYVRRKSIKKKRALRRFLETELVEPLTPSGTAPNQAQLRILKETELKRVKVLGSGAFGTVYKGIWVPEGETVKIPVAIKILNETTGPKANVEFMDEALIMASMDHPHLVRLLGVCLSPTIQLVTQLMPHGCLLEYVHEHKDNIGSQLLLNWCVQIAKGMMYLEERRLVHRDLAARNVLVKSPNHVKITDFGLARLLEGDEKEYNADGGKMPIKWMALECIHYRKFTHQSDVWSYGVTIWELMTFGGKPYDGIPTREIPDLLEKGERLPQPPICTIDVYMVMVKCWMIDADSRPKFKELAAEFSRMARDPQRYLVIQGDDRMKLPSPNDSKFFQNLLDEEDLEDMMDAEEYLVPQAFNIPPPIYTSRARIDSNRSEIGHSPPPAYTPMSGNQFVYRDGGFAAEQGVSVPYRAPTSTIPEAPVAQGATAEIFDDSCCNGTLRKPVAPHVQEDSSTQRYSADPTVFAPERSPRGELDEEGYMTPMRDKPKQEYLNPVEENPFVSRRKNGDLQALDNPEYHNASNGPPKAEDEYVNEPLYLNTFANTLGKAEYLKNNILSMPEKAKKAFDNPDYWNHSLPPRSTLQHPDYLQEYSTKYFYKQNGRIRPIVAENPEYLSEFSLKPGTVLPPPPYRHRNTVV
Tyrosine-protein kinase BTK (Homo sapiens), sequence (Q06187 whole entry): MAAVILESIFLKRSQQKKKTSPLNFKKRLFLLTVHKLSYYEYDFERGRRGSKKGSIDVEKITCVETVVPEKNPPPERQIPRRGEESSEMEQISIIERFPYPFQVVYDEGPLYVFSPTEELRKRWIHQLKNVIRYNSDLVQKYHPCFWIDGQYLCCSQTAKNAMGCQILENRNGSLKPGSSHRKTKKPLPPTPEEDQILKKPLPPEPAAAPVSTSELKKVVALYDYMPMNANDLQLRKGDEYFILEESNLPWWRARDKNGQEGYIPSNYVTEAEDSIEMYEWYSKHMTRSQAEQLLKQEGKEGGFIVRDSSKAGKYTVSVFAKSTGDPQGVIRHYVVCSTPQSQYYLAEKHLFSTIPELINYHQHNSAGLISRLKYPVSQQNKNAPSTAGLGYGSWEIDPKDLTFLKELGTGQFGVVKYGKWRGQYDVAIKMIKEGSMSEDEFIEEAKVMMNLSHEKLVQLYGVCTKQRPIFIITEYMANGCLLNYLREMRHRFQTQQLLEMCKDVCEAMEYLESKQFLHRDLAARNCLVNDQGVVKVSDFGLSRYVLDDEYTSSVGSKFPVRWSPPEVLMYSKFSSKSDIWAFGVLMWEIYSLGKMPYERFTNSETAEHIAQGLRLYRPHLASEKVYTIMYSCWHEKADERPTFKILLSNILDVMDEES
CYP2D6, sequence (P10635 whole entry): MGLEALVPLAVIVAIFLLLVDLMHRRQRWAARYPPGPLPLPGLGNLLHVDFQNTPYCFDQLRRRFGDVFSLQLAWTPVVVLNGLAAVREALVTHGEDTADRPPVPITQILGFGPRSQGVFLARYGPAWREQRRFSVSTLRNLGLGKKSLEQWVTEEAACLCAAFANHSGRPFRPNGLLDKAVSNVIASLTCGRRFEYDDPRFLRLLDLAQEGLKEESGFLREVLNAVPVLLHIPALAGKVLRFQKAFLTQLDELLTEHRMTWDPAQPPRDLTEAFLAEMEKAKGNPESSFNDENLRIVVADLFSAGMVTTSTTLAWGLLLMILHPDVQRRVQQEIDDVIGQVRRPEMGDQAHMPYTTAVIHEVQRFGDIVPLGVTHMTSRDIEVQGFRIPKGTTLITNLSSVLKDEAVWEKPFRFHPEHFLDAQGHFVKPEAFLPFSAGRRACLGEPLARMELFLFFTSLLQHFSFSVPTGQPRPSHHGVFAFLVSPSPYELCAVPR
CYP2C8, sequence (P10632 whole entry): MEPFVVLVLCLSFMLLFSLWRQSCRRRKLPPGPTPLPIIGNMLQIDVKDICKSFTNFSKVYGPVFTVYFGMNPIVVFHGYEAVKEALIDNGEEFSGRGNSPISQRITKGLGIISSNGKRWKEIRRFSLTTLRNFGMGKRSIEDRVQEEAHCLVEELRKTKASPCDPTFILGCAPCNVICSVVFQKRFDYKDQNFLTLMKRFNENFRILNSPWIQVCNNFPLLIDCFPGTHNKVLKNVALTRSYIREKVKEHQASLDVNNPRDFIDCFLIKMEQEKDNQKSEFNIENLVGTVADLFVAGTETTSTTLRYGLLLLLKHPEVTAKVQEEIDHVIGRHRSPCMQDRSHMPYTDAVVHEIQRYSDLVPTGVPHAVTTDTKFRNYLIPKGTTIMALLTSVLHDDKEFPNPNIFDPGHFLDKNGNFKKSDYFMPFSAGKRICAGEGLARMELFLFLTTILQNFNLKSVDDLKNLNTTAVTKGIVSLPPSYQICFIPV

In the case of `C=CC(=O)N[C@@H]1CN(c2nc(Nc3cn(C)nc3OC)c3ncn(C)c3n2)C[C@H]1F` [MAVELERTINIB], the Activity entry in the data set with Canis familiaris [1], in the data set on Salmonella typhimurium, with Canis familiaris [5], in the data set on Rattus norvegicus [6], in the data set on Canis familiaris [7] and with Rattus norvegicus [8] was “Non-Toxic” throughout. In addition, the Activity result in the data set with Canis familiaris [12], in the data set on Canis familiaris [16], in the data set on Rattus norvegicus [19] and in the data set on Rattus norvegicus [20] was “Non-Toxic” each time. The CLint scaled in data set [2] is 196 mL/min/kg; in [13], 183 mL/min/kg; in data set [15] it was less than 6 mL/min/kg; in data set [17] it was 141 mL/min/kg. The inhibition at 10 µM against CYP2D6 and against CYP2C8 was less than 30% throughout. For the same molecule, the results for the bioavailability in data set [3] and in data set [14] were 11% and 66%, respectively. The molecule further registered a half-life at 1 µM in data set [4] of 5.1 h. In data set [9], the inhibition entry is “Active”. Also, the TDI entry in data set [10] is listed as “Not Active”. Moreover, the fraction unbound at 2 µM in data set [11] was determined as 0.22. Moreover, in data set [18], the inhibition is more than 50%.
